Values joined by “and” are separate entries in the source; they are usually repeats but may differ in a detail not shown here. Equal entries are not always repeated. Toxic doses and inconclusive results are not listed. How the source made its calls: active means survival T/C of 150% or more; inactive means T/C below 125% in these data.
System: CD2F1 mice, L1210 leukemia ip, survival T/C
Assay: NCI In Vivo Anticancer Drug Screen. Data for tumor model L1210 Leukemia (intraperitoneal) in CD2F1 (CDF1) mice
Details: endpoint: mean survival time, higher = longer survival
Outline: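 Ratio T/C, where T is the treated-group value and C the vehicle-dosed control value, from mice implanted with a transplantable tumor.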

[1] = dose: 25.0 mg/kg/injection, schedule: Q01DX009 (ip), vehicle: saline with Tween-80
[2] = dose: 50.0 mg/kg/injection, schedule: Q01DX009 (ip), vehicle: saline with Tween-80
[3] = dose: 100.0 mg/kg/injection, schedule: Q01DX009 (ip), vehicle: saline with Tween-80
[4] = dose: 200.0 mg/kg/injection, schedule: Q01DX009 (ip), vehicle: saline with Tween-80
[5] = dose: 400.0 mg/kg/injection, schedule: Q01DX009 (ip), vehicle: saline with Tween-80
[6] = dose: 12.5 mg/kg/injection, schedule: Q01DX009 (ip), vehicle: saline with Tween-80
[7] = dose: 50.0 mg/kg/injection, schedule: Q04DX003 (ip), vehicle: saline with Tween-80
[8] = dose: 100.0 mg/kg/injection, schedule: Q04DX002 (ip), vehicle: saline with Tween-80
[9] = dose: 100.0 mg/kg/injection, schedule: Q04DX003 (ip), vehicle: saline with Tween-80
[10] = dose: 400.0 mg/kg/injection, schedule: Q04DX003 (ip), vehicle: saline with Tween-80
[11] = dose: 200.0 mg/kg/injection, schedule: Q04DX003 (ip), vehicle: saline with Tween-80
[12] = dose: 100.0 mg/kg/injection, schedule: Q01DX009 (ip), vehicle: saline

Measured: T/C

CCN(Cc1cnc2nc(N)nc(N)c2n1)c1c(Cl)cc(C(=O)NC(CCC(=O)O)C(=O)O)cc1Cl (stereo unspecified)
inactive: dose: 3.12 mg/kg/injection, schedule: Q01DX009 (ip), vehicle: sodium bicarbonate 117 % of control | dose: 6.25 mg/kg/injection, schedule: Q01DX009 (ip), vehicle: sodium bicarbonate 117 % of control
active: dose: 100.0 mg/kg/injection, schedule: Q01DX009 (ip), vehicle: sodium bicarbonate 170 % of control

CCOC(=O)C12CCC(C1=O)C(C)(O)CC2 (stereo unspecified)
inactive: dose: 50.0 mg/kg/injection, schedule: Q01DX009 (ip), vehicle: acetone 92 % of control | dose: 100.0 mg/kg/injection, schedule: Q01DX009 (ip), vehicle: acetone 90 % of control | dose: 200.0 mg/kg/injection, schedule: Q01DX009 (ip), vehicle: acetone 94 % of control

CCOc1ccc(Br)cc1/C=N/NS(=O)(=O)c1ccc(C)cc1
inactive: [1] 111 % of control | [2] 114 % of control | [3] 113 % of control

CCOC(=O)Nc1ccccc1F
inactive: [3] 98 % of control | [4] 107 % of control | [5] 95 % of control

CCCCOc1ccc(/C=N\NC(=O)CNC(=O)Nc2ccc(F)cc2)cc1
inactive: [2] 92 % of control | [3] 88 % of control | [4] 88 % of control

Nc1nc(Cl)ncc1C1OC(CO)C(O)C1O (stereo unspecified)
inactive: dose: 12.5 mg/kg/injection, schedule: Q01DX005 (ip), vehicle: water 91 % of control | dose: 25.0 mg/kg/injection, schedule: Q01DX005 (ip), vehicle: water 95 % of control | dose: 50.0 mg/kg/injection, schedule: Q01DX005 (ip), vehicle: water 91 % of control | dose: 100.0 mg/kg/injection, schedule: Q01DX005 (ip), vehicle: water 87 % of control | dose: 200.0 mg/kg/injection, schedule: Q01DX005 (ip), vehicle: water 98 % of control

NC(=S)N/N=C/c1ccc(OC(=O)COc2ccccc2Cl)cn1
inactive: [6] 120 % of control | [1] 122 % of control | dose: 50.0 mg/kg/injection, schedule: Q01DX001 (ip), vehicle: saline with Tween-80 101 % of control | [7] 116 % of control and 118 % of control | dose: 100.0 mg/kg/injection, schedule: Q01DX001 (ip), vehicle: saline with Tween-80 108 % of control | [8] 103 % of control and 106 % of control | [9] 124 % of control | dose: 200.0 mg/kg/injection, schedule: Q01DX001 (ip), vehicle: saline with Tween-80 113 % of control | dose: 200.0 mg/kg/injection, schedule: Q04DX002 (ip), vehicle: saline with Tween-80 118 % of control and 107 % of control
active: [3] 159 % of control | [4] 155 % of control | [10] 152 % of control and 163 % of control

CCC(C)C(CO)c1ccccc1 (stereo unspecified)
inactive: [2] 98 % of control | [3] 88 % of control

CN(CC[NH-])CC[NH-].[I][Pt]
inactive: dose: 12.5 mg/kg/injection, schedule: Q04DX003 (ip), vehicle: saline with Tween-80 100 % of control | dose: 25.0 mg/kg/injection, schedule: Q04DX003 (ip), vehicle: saline with Tween-80 94 % of control | [7] 98 % of control | [9] 100 % of control | [11] 94 % of control

CN(Cc1cnc2nc(N)nc(N)c2n1)c1ccc(C(=O)NC(CCC(=O)NC(CCC(=O)O)C(=O)O)C(=O)O)cc1 (stereo unspecified)
active: dose: 2.5 mg/kg/injection, schedule: Q01DX009 (ip), vehicle: sodium bicarbonate 165 % of control
inactive: dose: 5.0 mg/kg/injection, schedule: Q01DX009 (ip), vehicle: sodium bicarbonate 119 % of control | dose: 10.0 mg/kg/injection, schedule: Q01DX009 (ip), vehicle: sodium bicarbonate 89 % of control

CC1(C)CC(=O)C=C(N)C1
inactive: [3] 100 % of control | [4] 97 % of control | [5] 108 % of control

NC1=C(Cl)C(=O)C(N)=C(Cl)C1=O
inactive: [9] 101 % of control | [11] 101 % of control

Nc1ncnc2c1c1c(=S)[nH]c(=S)[nH]c1n2C1OC(CO)C(O)C1O (stereo unspecified)
inactive: dose: 12.5 mg/kg/injection, schedule: Q01DX005 (ip), vehicle: distilled water + Tween-80 104 % of control | dose: 25.0 mg/kg/injection, schedule: Q01DX005 (ip), vehicle: distilled water + Tween-80 105 % of control | dose: 50.0 mg/kg/injection, schedule: Q01DX005 (ip), vehicle: distilled water + Tween-80 107 % of control | dose: 100.0 mg/kg/injection, schedule: Q01DX005 (ip), vehicle: distilled water + Tween-80 104 % of control | dose: 200.0 mg/kg/injection, schedule: Q01DX005 (ip), vehicle: distilled water + Tween-80 102 % of control

CCOC(=O)Nc1ccc(F)cc1C
inactive: [9] 97 % of control | [11] 97 % of control | [10] 95 % of control

O=C([S-])N1CCCCC1.O=C([S-])N1CCCCC1.[Ni+2]
inactive: [6] 96 % of control | dose: 12.5 mg/kg/injection, schedule: Q04DX003 (ip), vehicle: saline sonified 100 % of control | [1] 93 % of control | dose: 25.0 mg/kg/injection, schedule: Q04DX003 (ip), vehicle: saline sonified 113 % of control | [2] 106 % of control | dose: 50.0 mg/kg/injection, schedule: Q04DX003 (ip), vehicle: saline sonified 92 % of control

CC[C@H](CC[C@@H](C)C1CC[C@H]2[C@@H]3CC=C4C[C@@H](OP(=O)(N5CC5)N5CC5)CC[C@]4(C)[C@H]3CC[C@]12C)C(C)C (stereo partly specified)
inactive: [6] 97 % of control | [1] 92 % of control | [2] 93 % of control | [3] 92 % of control | [4] 108 % of control | [5] 97 % of control

ClC1CCC[N-]C1.ClC1CCC[N-]C1.[Cl][Pt+2]([Cl])([Cl])[Cl] (stereo unspecified)
inactive: dose: 0.78 mg/kg/injection, schedule: Q01DX009 (ip), vehicle: saline with Tween-80 102 % of control | dose: 1.56 mg/kg/injection, schedule: Q01DX009 (ip), vehicle: saline with Tween-80 109 % of control | dose: 3.13 mg/kg/injection, schedule: Q01DX009 (ip), vehicle: saline with Tween-80 105 % of control | dose: 6.25 mg/kg/injection, schedule: Q01DX009 (ip), vehicle: saline with Tween-80 112 % of control | [6] 104 % of control

CCc1ccc(C(=O)CCCCl)cc1
inactive: [3] 104 % of control | [4] 100 % of control | [5] 100 % of control

O=C(O)/C=C(/C(=O)O)c1cccn1Cc1ccccc1
inactive: dose: 25.0 mg/kg/injection, schedule: Q04DX002 (ip), vehicle: saline with Tween-80 93 % of control | dose: 50.0 mg/kg/injection, schedule: Q04DX002 (ip), vehicle: saline with Tween-80 101 % of control | [8] 86 % of control and 87 % of control

COc1cc(C(=O)c2cc3c(cc2C)OCO3)cc(OC)c1OC
inactive: dose: 6.25 mg/kg/injection, schedule: Q01DX009 (ip), vehicle: Klucel (hydroxypropylcellulose) (HPC) 102 % of control and 105 % of control | dose: 12.5 mg/kg/injection, schedule: Q01DX009 (ip), vehicle: Klucel (hydroxypropylcellulose) (HPC) 100 % of control and 102 % of control | dose: 25.0 mg/kg/injection, schedule: Q01DX009 (ip), vehicle: Klucel (hydroxypropylcellulose) (HPC) 105 % of control and 107 % of control | dose: 50.0 mg/kg/injection, schedule: Q01DX009 (ip), vehicle: Klucel (hydroxypropylcellulose) (HPC) 113 % of control and 98 % of control | dose: 100.0 mg/kg/injection, schedule: Q01DX009 (ip), vehicle: Klucel (hydroxypropylcellulose) (HPC) 105 % of control | dose: 200.0 mg/kg/injection, schedule: Q01DX009 (ip), vehicle: Klucel (hydroxypropylcellulose) (HPC) 114 % of control

CCCCCCCCCCC(=O)OCC1OC2C(Oc3nc(=N)ccn32)C1OC(=O)CCCCCCCCCC (stereo unspecified)
inactive: dose: 100.0 mg/kg/injection, schedule: Q01DX009 (ip), vehicle: water 118 % of control
active: dose: 12.5 mg/kg/injection, schedule: Q01DX009 (ip), vehicle: water 156 % of control | dose: 25.0 mg/kg/injection, schedule: Q01DX009 (ip), vehicle: water 202 % of control | dose: 50.0 mg/kg/injection, schedule: Q01DX009 (ip), vehicle: water 242 % of control

O=C(O)C1CC[N-]CC1.O=C(O)C1CC[N-]CC1.O=C(O)C1CC[N-]CC1.O=C(O)C1CC[N-]CC1.[Cl][Rh][Cl]
inactive: dose: 66.0 mg/kg/injection, schedule: Q01DX009 (ip), vehicle: saline 112 % of control | [12] 110 % of control

[O-][n+]1cccc2ccc3ccccc3c21
inactive: dose: 50.0 mg/kg/injection, schedule: Q01DX009 (ip), vehicle: other 101 % of control | dose: 100.0 mg/kg/injection, schedule: Q01DX009 (ip), vehicle: other 101 % of control

CC[N+](C)(CC)CCNC(=O)C(c1ccccc1)c1ccccc1
inactive: dose: 25.0 mg/kg/injection, schedule: Q01DX009 (ip), vehicle: saline 104 % of control | dose: 50.0 mg/kg/injection, schedule: Q01DX009 (ip), vehicle: saline 102 % of control | [12] 95 % of control

O=C(O)C1CC2C=CC1C2 (stereo unspecified)
inactive: [3] 94 % of control | [9] 96 % of control | [4] 91 % of control | [11] 96 % of control | [5] 94 % of control | [10] 94 % of control

— PubChem BioAssay AID256 (DTP/NCI, 2004)
